{
  "source": "PubChem BioAssay (NCI)",
  "assay_in_all_cases": "growth of human tumour cells (NCI), 48 h",
  "key": {"[1]": {"tested_on": "NCI-H23 lung"}, "[2]": {"tested_on": "NCI-H460 lung"}, "[3]": {"tested_on": "NCI-H522 lung"}, "[4]": {"tested_on": "NCI/ADR-RES ovarian"}, "[5]": {"tested_on": "OVCAR-3 ovarian"}, "[6]": {"tested_on": "OVCAR-4 ovarian"}, "[7]": {"tested_on": "OVCAR-5 ovarian"}, "[8]": {"tested_on": "OVCAR-8 ovarian"}, "[9]": {"tested_on": "PC-3 prostate"}, "[10]": {"tested_on": "RPMI-8226 leukemia"}, "[11]": {"tested_on": "RXF 393 renal"}, "[12]": {"tested_on": "SF-268 CNS"}, "[13]": {"tested_on": "SF-295 CNS"}, "[14]": {"tested_on": "SF-539 CNS"}, "[15]": {"tested_on": "SK-MEL-2 melanoma"}, "[16]": {"tested_on": "SK-MEL-28 melanoma"}, "[17]": {"tested_on": "SK-MEL-5 melanoma"}, "[18]": {"tested_on": "SK-OV-3 ovarian"}, "[19]": {"tested_on": "SN12C renal"}, "[20]": {"tested_on": "SNB-19 CNS"}, "[21]": {"tested_on": "SNB-75 CNS"}, "[22]": {"tested_on": "SR leukemia"}, "[23]": {"tested_on": "SW-620 colon"}, "[24]": {"tested_on": "T-47D breast"}, "[25]": {"tested_on": "TK-10 renal"}, "[26]": {"tested_on": "U251 CNS"}, "[27]": {"tested_on": "UACC-257 melanoma"}, "[28]": {"tested_on": "UACC-62 melanoma"}, "[29]": {"tested_on": "UO-31 renal"}},
  "note": "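How tested: cells in 96-well plates exposed to compound for 48 hours at five concentrations. The concentration for 50% growth inhibition is given as GI50. TGI is the concentration that stops growth completely.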",
  "data": [
    {"smiles": "O=P(O)(O)C(O)(Cn1ccnc1)P(=O)(O)O", "values": [
      {"measurement": "GI50", "setting": "[1]", "result": "> 89.7", "unit": "µM"},
      {"measurement": "TGI", "setting": "[1]", "result": "> 100", "unit": "µM"},
      {"measurement": "GI50", "setting": "[2]", "result": "> 100", "unit": "µM"},
      {"measurement": "TGI", "setting": "[2]", "result": "> 100", "unit": "µM"},
      {"measurement": "GI50", "setting": "[3]", "result": "> 100", "unit": "µM"},
      {"measurement": "TGI", "setting": "[3]", "result": "> 100", "unit": "µM"},
      {"measurement": "GI50", "setting": "[4]", "result": "> 64.1", "unit": "µM"},
      {"measurement": "TGI", "setting": "[4]", "result": "> 100", "unit": "µM"},
      {"measurement": "GI50", "setting": "[5]", "result": "> 66.1", "unit": "µM"},
      {"measurement": "TGI", "setting": "[5]", "result": "> 100", "unit": "µM"},
      {"measurement": "GI50", "setting": "[6]", "result": "> 100", "unit": "µM"},
      {"measurement": "TGI", "setting": "[6]", "result": "> 100", "unit": "µM"},
      {"measurement": "GI50", "setting": "[7]", "result": "> 89.2", "unit": "µM"},
      {"measurement": "TGI", "setting": "[7]", "result": "> 100", "unit": "µM"},
      {"measurement": "GI50", "setting": "[8]", "result": "> 92.3", "unit": "µM"},
      {"measurement": "TGI", "setting": "[8]", "result": "> 100", "unit": "µM"},
      {"measurement": "GI50", "setting": "[9]", "result": "> 59.8", "unit": "µM"},
      {"measurement": "TGI", "setting": "[9]", "result": "> 100", "unit": "µM"},
      {"measurement": "GI50", "setting": "[10]", "result": 15.6, "unit": "µM"},
      {"measurement": "TGI", "setting": "[10]", "result": "> 100", "unit": "µM"},
      {"measurement": "GI50", "setting": "[11]", "result": "> 70.5", "unit": "µM"},
      {"measurement": "TGI", "setting": "[11]", "result": "> 100", "unit": "µM"},
      {"measurement": "GI50", "setting": "[12]", "result": "> 100", "unit": "µM"},
      {"measurement": "TGI", "setting": "[12]", "result": "> 100", "unit": "µM"},
      {"measurement": "GI50", "setting": "[13]", "result": "> 100", "unit": "µM"},
      {"measurement": "TGI", "setting": "[13]", "result": "> 100", "unit": "µM"},
      {"measurement": "GI50", "setting": "[14]", "result": 20.3, "unit": "µM"},
      {"measurement": "TGI", "setting": "[14]", "result": "> 100", "unit": "µM"},
      {"measurement": "GI50", "setting": "[15]", "result": "> 100", "unit": "µM"},
      {"measurement": "TGI", "setting": "[15]", "result": "> 100", "unit": "µM"},
      {"measurement": "GI50", "setting": "[16]", "result": "> 62.8", "unit": "µM"},
      {"measurement": "TGI", "setting": "[16]", "result": "> 100", "unit": "µM"},
      {"measurement": "GI50", "setting": "[17]", "result": "> 43", "unit": "µM"},
      {"measurement": "TGI", "setting": "[17]", "result": "> 78", "unit": "µM"},
      {"measurement": "GI50", "setting": "[18]", "result": "> 81.1", "unit": "µM"},
      {"measurement": "TGI", "setting": "[18]", "result": "> 100", "unit": "µM"},
      {"measurement": "GI50", "setting": "[19]", "result": "> 57.7", "unit": "µM"},
      {"measurement": "TGI", "setting": "[19]", "result": "> 100", "unit": "µM"},
      {"measurement": "GI50", "setting": "[20]", "result": "> 81.2", "unit": "µM"},
      {"measurement": "TGI", "setting": "[20]", "result": "> 100", "unit": "µM"},
      {"measurement": "GI50", "setting": "[21]", "result": "> 37.4", "unit": "µM"},
      {"measurement": "TGI", "setting": "[21]", "result": "> 100", "unit": "µM"},
      {"measurement": "GI50", "setting": "[22]", "result": "> 100", "unit": "µM"},
      {"measurement": "TGI", "setting": "[22]", "result": "> 100", "unit": "µM"},
      {"measurement": "GI50", "setting": "[23]", "result": "> 100", "unit": "µM"},
      {"measurement": "TGI", "setting": "[23]", "result": "> 100", "unit": "µM"},
      {"measurement": "GI50", "setting": "[24]", "result": "> 79", "unit": "µM"},
      {"measurement": "TGI", "setting": "[24]", "result": "> 100", "unit": "µM"},
      {"measurement": "GI50", "setting": "[25]", "result": "> 36.2", "unit": "µM"},
      {"measurement": "TGI", "setting": "[25]", "result": "> 100", "unit": "µM"},
      {"measurement": "GI50", "setting": "[26]", "result": "> 59.1", "unit": "µM"},
      {"measurement": "TGI", "setting": "[26]", "result": "> 100", "unit": "µM"},
      {"measurement": "GI50", "setting": "[27]", "result": "> 100", "unit": "µM"},
      {"measurement": "TGI", "setting": "[27]", "result": "> 100", "unit": "µM"},
      {"measurement": "GI50", "setting": "[28]", "result": "> 65.2", "unit": "µM"},
      {"measurement": "TGI", "setting": "[28]", "result": "> 100", "unit": "µM"},
      {"measurement": "GI50", "setting": "[29]", "result": "> 68.3", "unit": "µM"},
      {"measurement": "TGI", "setting": "[29]", "result": "> 100", "unit": "µM"}
    ]}
  ]
}
